Results as given in article PMC6470589, “Contribution of Molecular Structure to Self-Assembling and Biological Properties of Bifunctional Lipid-Like 4-(N-Alkylpyridinium)-1,4-Dihydropyridines” (Pharmaceutics, 2019).
Several values for one entry are separate records, joined by “and”; a condition that tells them apart may be missing. Identical values can stand only once. Entries after “also recorded” stand apart in the source; their conditions may differ.

Legend:
[1] = tested on: Bacillus subtilis subsp. spizizenii; assay: Toxicity screen, serial dilution-spot test; format: cell-based; settings: gram positive; 24 h exposure in DI water, 28 °C; 0.0001 = no colonies at 0.001 mM;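 also: last dilution that did not fully inhibit growth with colonies still present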
Description: (§1) An estimation of the toxicity of 4-(N-alkylpyridinium)-1,4-DHP derivatives 3, 6, 7, and 9–11 was performed using six prokaryotic (bacteria) and one eukaryotic (yeast) microorganism species according to the procedure elaborated by Suppi et al.. The microorganisms used in the study and their origin were: Bacillus subtilis subsp. spizizenii (ATCC® 6633™*, Microbiologics®, St Cloud, MN, USA), Escherichia coli (ATCC® 8739, Microbiologics®), Klebsiella pneumoniae (Latvian Microorganisms strain collection, LMKK, strain number 535, Riga, Latvia), Micrococcus luteus (LMKK, No. 25), Pseudomonas aeruginosa (NCTC 12924, Biosciences Ltd., Dublin, Ireland), Proteus mirabilis (LMKK, No 590), and Saccharomyces cerevisiae, CEN.PK2 strain [32].
(§2) Bacteria and yeast cultures were cultivated until their exponential growth phase (optical density max 1); then, 100 µL of cell suspension was taken, washed in deionised (DI) water, and added to serially diluted samples of corresponding 4-(N-alkylpyridinium)-1,4-DHPs in DI water. All 1,4-DHPs were tested in five serially diluted concentrations (10 mM, 1 mM, 0.1 mM, 0.01 mM, and 0.001 mM). Test organisms were exposed to 1,4-DHP derivatives in DI water on 96-well microplates (Corning, Corning, NY, USA) at 28 °C for 24 h without shaking in the dark. Then, a 5 µL sample was taken from each well and spotted on yeast extract, bactopeptone, dextrose broth (YPD) (yeast extract 1%, bactopeptone 2%, glucose 2% and agar 2%) plates to test the growth of yeasts and lysogeny broth (LB) (yeast extract 0.5%, bactopeptone 1%, NaCl 0.5% and agar 2%) to test the growth for bacteria. Plates were left in 30 °C for 24 h, and assessed for microbial growth.
(§3) If there were no colonies after incubation with 1,4-DHPs in the last concentration of (0.001 mM), then their boundary concentration was set to 0.0001 mM or 0.1 µM.

Proteus mirabilis = assay: Toxicity screen, serial dilution-spot test; format: cell-based; settings: gram negative; 24 h exposure in DI water, 28 °C; 0.0001 = no colonies at 0.001 mM;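 also: last dilution that did not fully inhibit growth with colonies still present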
Description: as §1, §2, §3

Klebsiella pneumoniae = assay: Toxicity screen, serial dilution-spot test; format: cell-based; settings: gram negative; 24 h exposure in DI water, 28 °C; 0.0001 = no colonies at 0.001 mM;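 also: last dilution that did not fully inhibit growth with colonies still present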
Description: as §1, §2, §3

Micrococcus luteus = assay: Toxicity screen, serial dilution-spot test; format: cell-based; settings: gram positive; 24 h exposure in DI water, 28 °C; 0.0001 = no colonies at 0.001 mM;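 also: last dilution that did not fully inhibit growth with colonies still present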
Description: as §1, §2, §3

Pseudomonas aeruginosa = assay: Toxicity screen, serial dilution-spot test; format: cell-based; settings: gram negative; 24 h exposure in DI water, 28 °C; 0.0001 = no colonies at 0.001 mM;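 also: last dilution that did not fully inhibit growth with colonies still present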
Description: as §1, §2, §3

[2] = tested on: Saccharomyces cerevisiae, CEN.PK2 strain; assay: Toxicity screen, serial dilution-spot test; format: cell-based; settings: yeast; 24 h exposure in DI water, 28 °C; 0.0001 = no colonies at 0.001 mM;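 also: last dilution that did not fully inhibit growth with colonies still present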
Description: as §1, §2, §3

Escherichia coli = assay: Toxicity screen, serial dilution-spot test; format: cell-based; settings: gram negative; 24 h exposure in DI water, 28 °C; 0.0001 = no colonies at 0.001 mM;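 also: last dilution that did not fully inhibit growth with colonies still present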
Description: as §1, §2, §3

[3] = Determination of critical aggregation concentration (CAC) by DLS; format: physicochemical; settings: aqueous media
Description: The critical aggregation concentrations (CAC) of 4-(N-alkylpyridinium)-1,4-DHP derivatives were determined in aqueous media using a Zetasizer Nano S90 (Malvern Panalytical Ltd., Malvern, UK) instrument with Malvern Instruments Ltd. Software according to procedure described by Topel et al. and modified by our group. Briefly, as stock solutions of tested compounds were used, samples were prepared for self-assembling experiments. All of the subsequent samples were prepared starting from the concentrated stock solution, which was subjected to a serial two-fold dilution each time with water. The intensity values of scattered light (kcps) as a function of concentration of amphiphiles were analysed. The scattering intensities detected for amphiphile concentrations below CAC have an approximately constant value corresponding to water. The intensity starts to show a linear increase with concentration at the CAC, since the amount of nanoparticles increases in the solution. The intersection of the best-fit lines drawn through the data points is the preliminary CAC value of the compounds.

[4] = tested on: six prokaryotic (bacteria) and one eukaryotic (yeast) microorganism species; assay: Toxicity screen, whole panel of microorganisms; format: cell-based; settings: concentrations tested 10 to 0.001 mM
Description: as §1, §2, §3

[5] = Self-assembling properties by dynamic light scattering (DLS); format: physicochemical; settings: for PDI ± SD, 1 Set: freshly prepared samples; for PDI ± SD, 2 Set: two weeks after the first set, samples stored at r.t.; for Stability of nanoparticles: two weeks of storage at r.t., DLS; for Zeta-Pot ± SD: freshly prepared samples in water, 0.5 mg/mL (1–7), 0.25 mg/mL (8–10), 0.1 mg/mL (11)
Description: Samples of compounds for dynamic light scattering (DLS) studies were prepared by thin-film hydration method in an aqueous solution at a concentration of 0.5 mg/mL for compounds 1–7, 0.25 mg/mL for compounds 8–10, and 0.1 mg/mL for compound 11. A corresponding amount of compounds was weighted in a round-bottom flask and dissolved in chloroform; then, the organic solvent was removed in vacuo, and the residue was dried in high vacuo for 1 h. An appropriate amount of deionised water was added to each flask for the preparation of stock solutions with the above-mentioned concentrations. Samples were prepared by sonication using a bath-type sonicator (Cole Parmer Ultrasonic Cleaner 8891CPX (Vernon Hills, IL, USA)). Samples were sonicated for 60 min at 50 °C.
The DLS measurements of the nanoparticles in an aqueous solution were carried out on a Zetasizer Nano ZSP (Malvern Panalytical Ltd., Malvern, UK) instrument with Malvern Instruments Ltd. Software 7.12, using the following specifications—medium: water; refractive index: 1.33; viscosity: 0.8872 cP; temperature: 25 °C; dielectric constant: 78.5; nanoparticles: liposomes; refractive index of materials: 1.60; detection angle: 173°; wavelength: 633 nm. Data were analysed using the multimodal number distribution software that was included with the instrument. The measurements were performed in triplicate in order to check their reproducibility.

[6] = tested on: HT-1080 (human connective tissue fibrosarcoma) cells; assay: MTT cytotoxicity assay on HT-1080 tumor cells, 72 h; format: cell-based; settings: MTT, 72 h; ne = no effect in the tested concentration (up to 100 μg/mL)
Description: (§4) Tumor cell lines HT-1080 (human connective tissue fibrosarcoma) and MH-22A (mouse hepatocarcinoma) were used. All of the cells were obtained from the American Type Culture Collection ((ATCC,) Rockville, MD, USA). HT-1080 and MH-22A cells (4 × 10^4 cell/mL) were seeded in 96-well plates in Dulbecco’s modified Eagle’s medium (DMEM) containing 10% fetal bovine serum and cultivated for 72 h at 37 °C, 5% CO2 by exposure to different compounds concentrations (100 μg/mL, 25 μg/mL, 6.25 μg/mL, and 1.56 μg/mL). Cell viability was measured using 3-(4,5-dimethylthiazol-2-yl)-2,5-diphenyl-tetrazolium bromide (MTT) assay. In brief, after incubating with compounds, the culture medium was removed and fresh medium with 0.2 mg/mL MTT was added in each well of the plate. After incubation (3 h, 37 °C, 5% CO2), the medium with MTT was removed, and 200 μL of DMSO was added at once to each sample. The samples were tested at 540 nm on a Tecan multiplate reader Infinite1000 (Tecan Austria GmbH, Salzburg, Austria). The IC50 was calculated using the program Graph Pad Prism® 3.0.

[7] = tested on: MH-22A (mouse hepatocarcinoma) cells; assay: MTT cytotoxicity assay on MH-22A tumor cells, 72 h; format: cell-based; settings: MTT, 72 h; ne = no effect in the tested concentration (up to 100 μg/mL)
Description: as §4

[8] = MTT cytotoxicity assay on HT-1080 tumor cells, 72 h; format: cell-based, human; settings: human, HT-1080 fibrosarcoma cells, MTT, 72 h; ne = no effect in the tested concentration (up to 100 μg/mL); read-out: Cytotoxicity IC50, HT-1080
Description: as §4

[9] = MTT cytotoxicity assay on MH-22A tumor cells, 72 h; format: cell-based, mouse; settings: mouse, MH-22A hepatocarcinoma cells, MTT, 72 h; ne = no effect in the tested concentration (up to 100 μg/mL); read-out: Cytotoxicity IC50, MH-22A
Description: as §4

[10] = tested on: NIH 3T3 (Mouse Swiss Albino embryo fibroblast) cells; assay: Basal cytotoxicity test (neutral red uptake) with estimation of LD50 from IC50; format: cell-based; settings: category by estimated LD50 (mg/kg)
Description: The neutral red uptake (NRU) assay was performed according to the standard protocol of Stokes modified by NICEATM-ECVAM validation study. The NRU cytotoxicity assay procedure was based on the ability of viable cells to incorporate and bind neutral red, which is a supravital dye.
NIH 3T3 (Mouse Swiss Albino embryo fibroblast) cells (9000 cells/well) were placed into 96-well plates for 24 h in DMEM medium containing 5% fetal bovine serum (FBS). Then, they were exposed to the test compound over a range of seven concentrations (1000 μg/mL, 316 μg/mL, 100 μg/mL, 31 μg/mL, 10 μg/mL, 3.0 μg/mL, and 1.0 μg/mL) for 24 h. Untreated cells were used as a control. After 24 h, the medium was removed from all plates. Then, 250 μL of neutral red (NR) solution was added (0.05 mg/mL NR in DMEM 24 h pre-incubated at 37 °C and then filtered before use through a 0.22-µm syringe filter). Plates were incubated for 3 h, and then, cells were washed three times with phosphate buffered saline (PBS). The dye within viable cells was released by extraction with a mixture of acetic acid, ethanol, and water (1:50:49). The absorbance of neutral red was measured using a spectrophotometer multiplate reader Infinite M1000 (Tecan Austria GmbH, Salzburg, Austria) at 540 nm. The optical density (OD) was calculated using the formula: OD (treated cells) × 100/OD (control cells). The IC50 values were calculated using the program Graph Pad Prism® 3.0.
Data from the in vitro tests were used for estimating the starting dose for acute oral systemic toxicity tests in rodent. The in vivo starting dose is an estimated LD50 value that is calculated by inserting the in vitro IC50 value into a regression formula: log LD50 (mM/kg) = 0.439 log IC50 (mM) + 0.621 [29]. The value is recalculated to mg/kg, and compounds are evaluated in accordance with four toxicity categories: category 1: LD50 ≤ 5 mg/kg (highly toxic); category 2: 5 < LD50 ≤ 50 mg/kg (moderately toxic); category 3: 50 < LD50 ≤ 300 mg/kg (slightly toxic); category 4: 300 < LD50 ≤ 2000 mg/kg (practically non-toxic). Using an alternative in vitro method enables comparing the possible toxicity of new compounds and selecting compounds for further study, which will vastly reduce the number of animal experiments.

SMILES	Boundary concentration, B. subtilis [1]	Boundary concentration, P. mirabilis (Proteus mirabilis)	Boundary concentration, K. pneumoniae (Klebsiella pneumoniae)	Boundary concentration, M. luteus (Micrococcus luteus)	Boundary concentration, P. aeruginosa (Pseudomonas aeruginosa)	Boundary concentration, S. cerevisiae [2]	Boundary concentration, E. coli (Escherichia coli)	CAC [3]	Effect on survival of microorganisms [4]	PDI ± SD, 1 Set [5]	PDI ± SD, 2 Set [5]	Stability of nanoparticles [5]	Cytotoxicity IC50, HT-1080 [6]	Cytotoxicity IC50, MH-22A [7]	Zeta-Pot ± SD [5]	IC50 at 72 h [8]	IC50 at 72 h [9]	Toxicity category from estimated LD50 [10]
C#CCN1C(C)=C(C(=O)OCC)C(c2ccc[n+](CCCCCCCCCCCCCCCC)c2)C(C(=O)OCC)=C1C [Compound 11]	0.0001 mM	0.0001 mM	10 mM	0.001 mM	0.01 mM	0.0001 mM	0.01 mM	7.6 µM	toxic at various degrees	0.37 and 0.37 ± 0.03	0.33 and 0.33 ± 0.03	stable after two weeks of storage; also recorded: confirmed the stability of nanoparticles						
C#CCN1C(C)=C(C(=O)OCC)C(c2ccc[n+](CC)c2)C(C(=O)OCC)=C1C [Compound 4]										0.16 and 0.16 ± 0.02	0.41 and 0.41 ± 0.07	lost their homogeneity after two weeks of storage; also recorded: weak stability	did not demonstrate any cytotoxic effect and ne	did not demonstrate any cytotoxic effect and ne	−5.47 ± 1.97 mV			
C#CCOC(=O)C1=C(C)NC(C)=C(C(=O)OCC#C)C1c1ccc[n+](CCCCCC)c1 [Compound 8]										0.60 and 0.60 ± 0.06	0.45 ± 0.05					76 ± 8 µM	80 ± 5 µM	non-toxic
C#CCN1C(C)=C(C(=O)OCC)C(c2ccc[n+](CCCCCC)c2)C(C(=O)OCC)=C1C [Compound 5]										0.72 and 0.72 ± 0.32	0.59 ± 0.01	weak stability			−9.96 ± 0.72 mV	5 ± 0.3 µM	16 ± 1 µM	non-toxic
CCOC(=O)C1=C(C)NC(C)=C(C(=O)OCC)C1c1ccc[n+](CC)c1 [Compound 1]										0.18 and 0.18 ± 0.01	0.40 and 0.40 ± 0.16	lost their homogeneity after two weeks of storage; also recorded: weak stability	did not demonstrate any cytotoxic effect and ne	did not demonstrate any cytotoxic effect and ne	−8.43 ± 2.14 mV			
CCCCCC[n+]1cccc(C2C(C(=O)OCC)=C(C)NC(C)=C2C(=O)OCC)c1 [Compound 2]										0.50 and 0.50 ± 0.10	0.91 ± 0.10	weak stability			−11.39 ± 1.85 mV	26 ± 2 µM	67 ± 4 µM	non-toxic
